Data: patent US12699067B2, “Electrochemical biosensor and the manufacturing method thereof” (China Medical University, priority 2023, dated 2026)

System: human non-small cell lung cancer cell line (A549 cell line)
Assay: Detection of heat shock protein (Hsp70) released from paclitaxel-treated A549 cells with the Hsp70 electrochemical immunosensor
Type: cell-based
Conditions: A549 cell line treated with 0, 75, 100 μM Paclitaxel; culture solution as control; FIG. 12
Excerpt: It was known that the expression of heat shock protein (Hsp70) was highly correlated with the growth of cancer cells. The present invention further uses Hsp70 electrochemical immunosensor (BSA/antiHsp70/EN-LC/Au@MnO2/MoO3) to detect heat shock protein (Hsp70) in human non-small cell lung cancer cell line (A549 cell line).
Therefore, the Hsp70 electrochemical immunosensor provided by the present invention could be used for detecting heat shock protein (Hsp70).

CC(=O)O[C@H]1C(=O)[C@@]2(C)[C@H]([C@H](OC(=O)c3ccccc3)[C@]3(O)C[C@H](OC(=O)[C@H](O)[C@@H](NC(=O)c4ccccc4)c4ccccc4)C(C)=C1C3(C)C)[C@]1(OC(C)=O)CO[C@@H]1C[C@@H]2O [paclitaxel, Paclitaxel]
curve (the radius) of Hsp70 electrochemical immunosensor, indicating bound heat shock protein (Hsp70) released by the cells: increased
